Data published in the NIST ThermoML archive (doi:10.1016/j.jct.2017.01.016).
± gives the expanded uncertainty stated by the source.

Legend:
[1] = 101 kPa, Liquid; for viscosity: Capillary tube (Ostwald / Ubbelohde) method; for speed of sound: Frequency=3 MHz, Linear variable-path acoustic interferometer
[2] = xn = mol fraction of the nth substance listed; conditions: 101 kPa, Liquid; for viscosity: Capillary tube (Ostwald / Ubbelohde) method; for speed of sound: Frequency=3 MHz, Linear variable-path acoustic interferometer

Row | Compound | viscosity ([1]; 293.15 K) | speed of sound ([1]; 293.15 K) | viscosity ([1]; 298.15 K) | speed of sound ([1]; 298.15 K) | viscosity ([1]; 303.15 K) | speed of sound ([1]; 303.15 K) | viscosity ([1]; 308.15 K) | speed of sound ([1]; 308.15 K) | viscosity ([1]; 313.15 K) | speed of sound ([1]; 313.15 K) | viscosity ([1]; 318.15 K) | speed of sound ([1]; 318.15 K) | viscosity ([2]; 293.15 K, x1 = 1) | speed of sound ([2]; 293.15 K, x1 = 1) | viscosity ([2]; 298.15 K, x1 = 1) | speed of sound ([2]; 298.15 K, x1 = 1) | viscosity ([2]; 303.15 K, x1 = 1) | speed of sound ([2]; 303.15 K, x1 = 1) | viscosity ([2]; 308.15 K, x1 = 1) | speed of sound ([2]; 308.15 K, x1 = 1) | other results
1 | Cc1ccccc1C [1,2-dimethylbenzene] | 0.8066 ± 0.017 mPa·s | 1367.7 ± 1.7 m/s | 0.7576 ± 0.016 mPa·s | 1347.5 ± 1.7 m/s | 0.7132 ± 0.015 mPa·s | 1329.4 ± 1.7 m/s | 0.669 ± 0.014 mPa·s | 1313.3 ± 1.7 m/s | 0.6315 ± 0.013 mPa·s | 1298.5 ± 1.6 m/s | 0.5972 ± 0.013 mPa·s | 1285.2 ± 1.6 m/s | – | – | – | – | – | – | – | – | –
2 | Cc1cc(C)cc(C)c1 [1,3,5-trimethylbenzene] | 0.7056 ± 0.015 mPa·s | 1360.4 ± 1.7 m/s | 0.6592 ± 0.014 mPa·s | 1339.8 ± 1.7 m/s | 0.6188 ± 0.013 mPa·s | 1319.6 ± 1.7 m/s | 0.5792 ± 0.012 mPa·s | 1300.2 ± 1.7 m/s | 0.5422 ± 0.011 mPa·s | 1280.4 ± 1.7 m/s | 0.5066 ± 0.011 mPa·s | 1263 ± 1.7 m/s | – | – | – | – | – | – | – | – | –
3 | Cc1cccc(C)c1 [1,3-dimethylbenzene] | 0.6184 ± 0.013 mPa·s | 1346.7 ± 1.7 m/s | 0.584 ± 0.012 mPa·s | 1323.6 ± 1.7 m/s | 0.5517 ± 0.012 mPa·s | 1302.4 ± 1.7 m/s | 0.5229 ± 0.011 mPa·s | 1282.3 ± 1.6 m/s | 0.4938 ± 0.01 mPa·s | 1262.3 ± 1.6 m/s | 0.468 ± 0.0099 mPa·s | 1243 ± 1.6 m/s | – | – | – | – | – | – | – | – | –
4 | Cc1ccc(C)cc1 [1,4-dimethylbenzene] | 0.6505 ± 0.014 mPa·s | 1328.4 ± 1.7 m/s | 0.6115 ± 0.013 mPa·s | 1307.4 ± 1.7 m/s | 0.5766 ± 0.012 mPa·s | 1287.3 ± 1.6 m/s | 0.544 ± 0.011 mPa·s | 1267.6 ± 1.6 m/s | 0.5132 ± 0.011 mPa·s | 1248.3 ± 1.6 m/s | 0.4862 ± 0.01 mPa·s | 1229.8 ± 1.6 m/s | – | – | – | – | – | – | – | – | –
5 | C1COCCO1 [1,4-dioxane] | 1.306 ± 0.027 mPa·s | 1367.2 ± 1.7 m/s | 1.195 ± 0.025 mPa·s | 1344.7 ± 1.7 m/s | 1.096 ± 0.023 mPa·s | 1323.1 ± 1.7 m/s | 1.014 ± 0.021 mPa·s | 1301.2 ± 1.7 m/s | 0.945 ± 0.02 mPa·s | 1279.7 ± 1.6 m/s | 0.884 ± 0.018 mPa·s | 1258.6 ± 1.6 m/s | – | – | – | – | – | – | – | – | –
6 | C1COCCO1 [1,4-dioxane] + Cc1cc(C)cc(C)c1 | – | – | – | – | – | – | – | – | – | – | – | – | 1.306 ± 0.027 mPa·s | 1367.2 ± 1.7 m/s | 1.195 ± 0.025 mPa·s | 1344.7 ± 1.7 m/s | 1.096 ± 0.023 mPa·s | 1323.1 ± 1.7 m/s | 1.014 ± 0.021 mPa·s | 1301.2 ± 1.7 m/s | viscosity ([2]; 313.15 K, x1 = 1): 0.945 ± 0.02 mPa·s; speed of sound ([2]; 313.15 K, x1 = 1): 1279.7 ± 1.6 m/s; viscosity ([2]; 318.15 K, x1 = 1): 0.884 ± 0.018 mPa·s; speed of sound ([2]; 318.15 K, x1 = 1): 1258.6 ± 1.6 m/s
7 | C1COCCO1 [1,4-dioxane] + Cc1ccc(C)cc1 | – | – | – | – | – | – | – | – | – | – | – | – | 1.306 ± 0.027 mPa·s | 1367.2 ± 1.7 m/s | 1.195 ± 0.025 mPa·s | 1344.7 ± 1.7 m/s | 1.096 ± 0.023 mPa·s | 1323.1 ± 1.7 m/s | 1.014 ± 0.021 mPa·s | 1301.2 ± 1.7 m/s | viscosity ([2]; 313.15 K, x1 = 1): 0.945 ± 0.02 mPa·s; speed of sound ([2]; 313.15 K, x1 = 1): 1279.7 ± 1.6 m/s; viscosity ([2]; 318.15 K, x1 = 1): 0.884 ± 0.018 mPa·s; speed of sound ([2]; 318.15 K, x1 = 1): 1258.6 ± 1.6 m/s
8 | C1COCCO1 [1,4-dioxane] + Cc1cccc(C)c1 | – | – | – | – | – | – | – | – | – | – | – | – | 1.306 ± 0.027 mPa·s | 1367.2 ± 1.7 m/s | 1.195 ± 0.025 mPa·s | 1344.7 ± 1.7 m/s | 1.096 ± 0.023 mPa·s | 1323.1 ± 1.7 m/s | 1.014 ± 0.021 mPa·s | 1301.2 ± 1.7 m/s | viscosity ([2]; 313.15 K, x1 = 1): 0.945 ± 0.02 mPa·s; speed of sound ([2]; 313.15 K, x1 = 1): 1279.7 ± 1.6 m/s; viscosity ([2]; 318.15 K, x1 = 1): 0.884 ± 0.018 mPa·s; speed of sound ([2]; 318.15 K, x1 = 1): 1258.6 ± 1.6 m/s
9 | C1COCCO1 [1,4-dioxane] + Cc1ccccc1C | – | – | – | – | – | – | – | – | – | – | – | – | 1.306 ± 0.027 mPa·s | 1367.2 ± 1.7 m/s | 1.195 ± 0.025 mPa·s | 1344.7 ± 1.7 m/s | 1.096 ± 0.023 mPa·s | 1323.1 ± 1.7 m/s | 1.014 ± 0.021 mPa·s | 1301.2 ± 1.7 m/s | viscosity ([2]; 313.15 K, x1 = 1): 0.945 ± 0.02 mPa·s; speed of sound ([2]; 313.15 K, x1 = 1): 1279.7 ± 1.6 m/s; viscosity ([2]; 318.15 K, x1 = 1): 0.884 ± 0.018 mPa·s; speed of sound ([2]; 318.15 K, x1 = 1): 1258.6 ± 1.6 m/s
10 | c1ccccc1 [benzene] | 0.647 ± 0.013 mPa·s | 1324.4 ± 1.6 m/s | 0.6048 ± 0.013 mPa·s | 1299.5 ± 1.6 m/s | 0.5672 ± 0.012 mPa·s | 1275.7 ± 1.6 m/s | 0.5322 ± 0.011 mPa·s | 1252.4 ± 1.6 m/s | 0.498 ± 0.01 mPa·s | 1229.3 ± 1.6 m/s | 0.4672 ± 0.0098 mPa·s | 1207.8 ± 1.6 m/s | – | – | – | – | – | – | – | – | –
11 | c1ccccc1 [benzene] + C1COCCO1 | – | – | – | – | – | – | – | – | – | – | – | – | – | – | – | – | – | – | – | – | viscosity ([2]; 293.15 K, x2 = 0): 0.647 ± 0.013 mPa·s; speed of sound ([2]; 293.15 K, x2 = 0): 1324.4 ± 1.6 m/s; viscosity ([2]; 298.15 K, x2 = 0): 0.6048 ± 0.013 mPa·s; speed of sound ([2]; 298.15 K, x2 = 0): 1299.5 ± 1.6 m/s; viscosity ([2]; 303.15 K, x2 = 0): 0.5672 ± 0.012 mPa·s; speed of sound ([2]; 303.15 K, x2 = 0): 1275.7 ± 1.6 m/s; viscosity ([2]; 308.15 K, x2 = 0): 0.5322 ± 0.011 mPa·s; speed of sound ([2]; 308.15 K, x2 = 0): 1252.4 ± 1.6 m/s; viscosity ([2]; 313.15 K, x2 = 0): 0.498 ± 0.01 mPa·s; speed of sound ([2]; 313.15 K, x2 = 0): 1229.3 ± 1.6 m/s; viscosity ([2]; 318.15 K, x2 = 0): 0.4672 ± 0.0098 mPa·s; speed of sound ([2]; 318.15 K, x2 = 0): 1207.8 ± 1.6 m/s
12 | Cc1ccccc1 [toluene] | 0.5885 ± 0.012 mPa·s | 1328.6 ± 1.6 m/s | 0.5541 ± 0.012 mPa·s | 1307.3 ± 1.6 m/s | 0.5232 ± 0.011 mPa·s | 1285.5 ± 1.6 m/s | 0.495 ± 0.01 mPa·s | 1264.2 ± 1.6 m/s | 0.4662 ± 0.0098 mPa·s | 1242.4 ± 1.6 m/s | 0.4384 ± 0.0092 mPa·s | 1220.7 ± 1.6 m/s | – | – | – | – | – | – | – | – | –
13 | Cc1ccccc1 [toluene] + C1COCCO1 | – | – | – | – | – | – | – | – | – | – | – | – | – | – | – | – | – | – | – | – | viscosity ([2]; 293.15 K, x2 = 0): 0.5885 ± 0.012 mPa·s; speed of sound ([2]; 293.15 K, x2 = 0): 1328.6 ± 1.6 m/s; viscosity ([2]; 298.15 K, x2 = 0): 0.5541 ± 0.012 mPa·s; speed of sound ([2]; 298.15 K, x2 = 0): 1307.3 ± 1.6 m/s; viscosity ([2]; 303.15 K, x2 = 0): 0.5232 ± 0.011 mPa·s; speed of sound ([2]; 303.15 K, x2 = 0): 1285.5 ± 1.6 m/s; viscosity ([2]; 308.15 K, x2 = 0): 0.495 ± 0.01 mPa·s; speed of sound ([2]; 308.15 K, x2 = 0): 1264.2 ± 1.6 m/s; viscosity ([2]; 313.15 K, x2 = 0): 0.4662 ± 0.0098 mPa·s; speed of sound ([2]; 313.15 K, x2 = 0): 1242.4 ± 1.6 m/s; viscosity ([2]; 318.15 K, x2 = 0): 0.4384 ± 0.0092 mPa·s; speed of sound ([2]; 318.15 K, x2 = 0): 1220.7 ± 1.6 m/s
